Read-outs that look alike come from different tables or passages of the source.
Experiments:
human colon HCT15 cells = experiment: Microarray gene expression analysis, HCT15 cells in vitro; type: cell-based; conditions: HCT-15, HCT15 in vitro
Description: Human cancer cell lines were from American Type Culture Collection (Manassas, Va.) and were all cultured following the vendor's instructions.
(§1) Biological analysis was performed using Biointerpreter software.

[1] = test system: human peripheral white cells; experiment: Microarray gene expression analysis, peripheral white cells ex vivo; type: cell-based; conditions: WBC ex vivo
Description: Whole blood from either consenting healthy volunteers or consenting patients was centrifuged at 2500 rpm for 10 minutes at ambient temperature in a Sorvall RT-7 centrifuge (Mandel Scientific Co., Guelph, Ontario). Plasma was removed and buffy coat was collected. Five volumes of Erythrocyte Lysis Buffer (EL) (Qiagen Canada Inc., Mississauga, Ontario) were added into buffy coat. Buffy coat was incubated on ice for 20 minutes before it was centrifuged at 400 g for 10 minutes at 4° C. Supernatant was removed and buffy coat was washed twice with EL buffer and re-centrifuged. Buffy coat was resuspended in RPMI media and cells were counted with trypan blue exclusion. To isolate PBMCs, buffy coat cells were centrifuged over Lymphoprep (Axis-Shield, 1114544), and any remaining erythrocytes in the sample were lysed by treatment with EL lysis buffer (Qiagen, 79217). The cell pellets are washed and then re-suspended in RPMI containing 10% FBS.
as §1

Jurkat-T leukemic cells = experiment: RT-PCR of MT3 transcription in Jurkat-T cells; type: cell-based, human; conditions: 16 h, semi-quantitative RT-PCR (FIG. 2)
Description: (§2) RNA was extracted from 8×10^6 cells using the Qiagen RNeasy Mini kit (cat#74106, Qiagen, Missisauga Ont.) following the manufacturer's instructions. RT reaction was performed using the Expand Reverse Transcriptase kit from Roche (Cat#1 785 834 Roche Applied Biosciences, Laval, Que) with 1 μg total RNA together with 1 μl oligo(dT) primer (cat#y01212, Invitrogen-Canada, Burlington, Ont). cDNA was synthesized using an Eppendorf Mastercycler gradient PCR apparatus (Brinkmann Instruments Canada LTD., Mississauga, Ontario), using a two cycle protocol. For the 1st cycle reaction mixture (0.5 μl H2O, 4 μl of 5× Buffer, 2 μl DTT, 2 ul of 10 mM dNTPs, 0.5 μl RNAsin (cat#N211B, Promega, Fisher Scientific, Whitby, Ont.) and […] of the Expand Reverse Transcriptase (Cat#1785834, Roche, Laval, Quebec)) was incubated at 65° C. for 10 minutes and then set on ice. A second cycle was performed at 42° C. for 1 hour. The resulting cDNA products were kept at 4° C. until used.
(§3) One ul of the resulting cDNA was used for every amplification reaction with 18.9 ul H2O, 1.25 ul of 10 mM dNTPs, 0.5 ul of each primer pair, 2.5 ul of 10× Buffer. The PCR reaction was carried out in an Eppendorf Mastercycler gradient. The sequences of the primers used for the amplification of selected biomarkers, as well as the details of the PCR reaction cycles are featured below. […]

[2] = test system: implanted human NSCLC H460 tumors; experiment: Semi-quantitative PCR of p21 and MT3 in H460 tumors in nude mice; type: in vivo, nude mice (Balb/c); conditions: 100 mg/kg oral
Description: FIG. 5 Induction of MT3 and p21 in implanted human NSCLC H460 tumors in vivo in nude mice. Nude mice (Balb/c) bearing human H460 tumors were treated with 100 mg/kg MGCD0103 or 0.5% HEC (Vehicle) by oral administration. After 6 h or 24 h, three mice from each group were sacrificed, their tumors harvested and analyzed. Panel A: p21 and MT3 RNA levels quantified by conventional semi-quantitative PCR, normalized to β-actin. Panel B: H4Ac level detected by immunoblot analysis, normalized to total histones.
as §2
as §3, with “below. All buffers came from Expand Long Template PCR system (Roche, Laval, Quebec, Cat#11681842001). All primers were synthesized by Invitrogen (Invitrogen-Canada, Burlington, Ont.)” for “below.”

bone marrow blast count = experiment: Bone marrow blast count in AML patient; type: in vivo, human; conditions: AML Patient A, 2 cycles of treatment (FIG. 10)
Description: FIG. 10. Reduction of bone marrow blast count in Patient A after 2 cycles of MGCD0103 treatment in vivo.
Human patients with either solid tumors or leukemia/MDS diseases were enrolled in phase I studies with consensus forms. MGCD0103 were dosed into patients orally every other day (day 1, day 3, day 5 […]). Blood samples were withdrawled by using the Vacutainer sodium-heparin blood collection tubes (Becton Dickinson Laboratories, Franklin Lakes, N.J.) and shipped to the test site within 24 hours on ice-pack. Baseline samples were drawn immediately prior to the first drug dose, while the 24 hour samples were drawn at 24 hours post the first drug dose. The 48 hours samples were drawn at 48 hours post the first dose. For the 1 week samples, blood was drawn 72 hours after day 5 dose (3 accumulated doses during week 1).

[3] = probe A_23_P16523, read-out: Fold Induction of GDF15 transcription
[4] = probe A_23_P41344, read-out: Fold Induction of EREG transcription
[5] = probe A_23_P52336, read-out: Fold Induction of UNC5B transcription
[6] = probe A_23_P94754, read-out: Fold Induction of TNFSF15 transcription
[7] = probe A_23_P114947, read-out: Fold Induction of RGS2 transcription
[8] = probe A_23_P142506, read-out: Fold Induction of GADD45B transcription
[9] = probe A_23_P149019, read-out: Fold Induction of BAI2 transcription
[10] = probe A_23_P151046, read-out: Fold Induction of KLRC1 transcription
[11] = probe A_23_P259071, read-out: Fold Induction of AREG transcription
[12] = probe A_23_P315273, read-out: Fold Induction of MT3 transcription
[13] = probe A_24_P5856, read-out: Fold Induction of TNFSF9 transcription
[14] = probe A_24_P217520, read-out: Fold Induction of EREG transcription

Q: Which results are given for `Nc1ccccc1NC(=O)c1ccc(CNc2nccc(-c3cccnc3)n2)cc1` [MGCD0103]?
A: fold induction at 1 µM (human colon HCT15 cells; [3]): 4.18; fold induction at 1 µM (human colon HCT15 cells; [4]): 4.62; fold induction at 1 µM (human colon HCT15 cells; [5]): 5.7; fold induction at 1 µM (human colon HCT15 cells; [6]): 4.11; fold induction at 1 µM (human colon HCT15 cells; [7]): 2.75; fold induction at 1 µM (human colon HCT15 cells; [8]): 3.1; fold induction at 1 µM (human colon HCT15 cells; [9]): 5.13; fold induction at 1 µM (human colon HCT15 cells; [10]): 9.29; fold induction at 1 µM (human colon HCT15 cells; [11]): 9.39; fold induction at 1 µM (human colon HCT15 cells; [12]): 7.65; fold induction at 1 µM (human colon HCT15 cells; [13]): 2.96; fold induction at 1 µM (human colon HCT15 cells; [14]): 4.14; fold induction at 1 µM [1, 3]: 18.8; fold induction at 1 µM [1, 4]: 12.8; fold induction at 1 µM [1, 5]: 2.66; fold induction at 1 µM [1, 6]: 4.43; fold induction at 1 µM [1, 7]: 4.43; fold induction at 1 µM [1, 8]: 2.9; fold induction at 1 µM [1, 9]: 2.69; fold induction at 1 µM [1, 10]: 3.12; fold induction at 1 µM [1, 11]: 32.6; fold induction at 1 µM [1, 12]: 5.16; fold induction at 1 µM [1, 13]: 3.32; fold induction at 1 µM [1, 14]: 10.5; Dose-dependent induction of MT3 transcription (Jurkat-T leukemic cells): Dose-dependent induction; persistence of gene induction (p21, MT3) in tumors [2]: at least 24 h; induction of MT3 RNA in tumors ([2]; 6 h or 24 h (FIG. 5A)): induction; induction of p21 RNA in tumors ([2]; 6 h or 24 h (FIG. 5A)): induction; bone marrow blast count (bone marrow blast count): reduction
